Experimental data reported in ChEMBL document CHEMBL5625209, “Rational design and optimization of acylthioureas as novel potent influenza virus non-nucleoside polymerase inhibitors” (Eur J Med Chem, 2023).
The source made the active and inactive calls. The rule behind the calls is not given here.

Experiments:
Influenza A virus = test: Antiviral activity against Influenza A virus H1N1 (A/Puerto Rico/8/34) infected in MDCK cells assessed as reduction in virus-induced cytopathic effect incubated for 48 hrs by CCK8 assay; assay type: functional, organism-based
[1] = Cytotoxicity against MDCK cells by CCK-8 assay; assay type: toxicity, cell-based, Canis lupus familiaris; conditions: dog
[2] = Selectivity index, ratio of CC50 for MDCK cells to EC50 for antiviral activity against Influenza A virus H1N1 (A/Puerto Rico/8/34) infected in MDCK cells; assay type: toxicity, cell-based; conditions: dog, read-out: Ratio CC50/EC50
Influenza B virus [3] = test: Antiviral activity against influenza B virus B/Yamagata/16/88 infected in MDCK cells; assay type: functional, organism-based; conditions: B/Yamagata/16/88, MDCK
Influenza B virus [4] = test: Antiviral activity against influenza B virus Victoria/2/87 infected in MDCK cells; assay type: functional, organism-based; conditions: Victoria/2/87, MDCK

Compound	Activity (Influenza A virus)	EC50 (Influenza A virus) [µM]	CC50 [1] [µM]	selectivity ratio [2]	EC50 (Influenza B virus [3]) [µM]	EC50 (Influenza B virus [4]) [µM]
CC(=O)Nc1ccc(NC(=S)NC(=O)c2ccc(Cl)cc2)cc1	inactive	–	–	–	–	–
CC(C)(C)c1ccc(C(=O)NC(=S)Nc2ccc(F)cc2F)cc1	–	0.72	95.7	133	–	–
CC(C)(C)c1ccc(C(=O)NC(=S)Nc2ccc(NC(=O)c3ccc(Br)cc3)cc2)cc1	–	0.008	> 100	> 12500	–	–
Cc1ccc(NC(=S)NC(=O)c2ccc(C(C)(C)C)cc2)c(C)c1	–	0.044	97.9	2220	–	–
CC(C)(C)c1ccc(C(=O)NC(=S)Nc2c(Br)cc(Br)cc2Br)cc1	–	0.36	60.7	169	–	–
COc1ccccc1C(=O)Nc1ccc(NC(=S)NC(=O)c2ccc(C(C)(C)C)cc2)cc1	–	0.027	72.2	2670	–	–
CCc1ccc(C(=O)Nc2ccc(NC(=S)NC(=O)c3ccc(C(C)(C)C)cc3)cc2)cc1	–	0.001	> 100	> 100000	–	–
CCCc1ccc(C(=O)Nc2ccc(NC(=S)NC(=O)c3ccc(C(C)(C)C)cc3)cc2)cc1	–	0.001	> 100	> 100000	–	–
CC(=O)Nc1ccc(NC(=S)NC(=O)c2ccc(C(C)(C)C)cc2)cc1	–	0.25	50	200	–	–
CC(C)(C)c1ccc(C(=O)NC(=S)Nc2ccc3ccccc3n2)cc1	–	0.83	91.7	110	–	–
CC(C)(C)c1ccc(C(=O)NC(=S)Nc2c(Cl)cc(Cl)cc2Cl)cc1	–	0.48	80.2	167	–	–
CC(=O)Nc1ccc(NC(=S)NC(=O)c2ccccc2Cl)cc1	inactive	–	–	–	–	–
CC(C)(C)c1ccc(C(=O)NC(=S)Nc2ccccc2Cl)cc1	–	0.036	48	1330	–	–
CC(=O)Nc1ccc(NC(=S)NC(=O)c2cccs2)cc1	–	2.44	52.2	21.4	–	–
CC(C)(C)c1ccc(C(=O)NC(=S)Nc2ccc(C(F)(F)F)cc2C(F)(F)F)cc1	–	0.45	74.3	165	–	–
Cc1ccc(C(=O)Nc2ccc(NC(=S)NC(=O)c3ccc(C(C)(C)C)cc3)cc2)cc1	–	0.027	> 100	> 3700	–	–
CC(C)(C)c1ccc(C(=O)NC(=S)Nc2ccccc2Br)cc1	–	0.032	85.1	2660	–	–
CC(C)(C)c1ccc(C(=O)NC(=S)Nc2ccccn2)cc1	–	0.319	> 100	> 314	–	–
CC(C)(C)c1ccc(C(=O)NC(=S)Nc2ccc(NC(=O)c3ccc(Cl)cc3)cc2)cc1	–	0.003	> 100	> 33300	0.3	0.9
CC(C)(C)c1ccc(C(=O)NC(=S)Nc2ccc(-n3cncn3)cc2)cc1	–	0.7	54	77.1	–	–
COc1ccc(C(=O)NC(=S)Nc2ccc(NC(C)=O)cc2)cc1	inactive	–	–	–	–	–
COc1cccc(C(=O)Nc2ccc(NC(=S)NC(=O)c3ccc(C(C)(C)C)cc3)cc2)c1	–	0.023	72.2	3140	–	–
Cc1ccccc1NC(=S)NC(=O)c1ccc(C(C)(C)C)cc1	–	0.038	> 100	> 2630	–	–
CC(C)(C)c1ccc(C(=O)N2C(=O)CN(c3ccccc3F)C2=S)cc1	–	3.6	25.4	7.1	–	–

Compound	Activity (Influenza A virus)	EC50 (Influenza A virus) [µM]	CC50 [1] [µM]	selectivity ratio [2]	EC50 (Influenza B virus [3]) [µM]	EC50 (Influenza B virus [4]) [µM]
CC(C)(C)c1ccc(C(=O)NC(=S)Nn2cnnc2)cc1	–	0.88	65.9	74.9	–	–
CCCCc1ccc(C(=O)Nc2ccc(NC(=S)NC(=O)c3ccc(C(C)(C)C)cc3)cc2)cc1	–	0.008	> 100	> 12500	–	–
O=C(NC(=S)Nc1ccccc1F)c1cc2ccccc2s1	–	10	> 100	> 10	–	–
CC(C)(C)c1ccc(C(=O)NC(=S)Nc2ccc(NC(=O)c3ccc(F)cc3)cc2)cc1	–	0.027	> 100	> 3700	–	–
CC(C)(C)c1ccc(C(=O)NC(=S)Nc2ccccc2F)cc1	–	0.045	> 100	> 2220	–	–
CC(C)(C)c1ccc(C(=O)NC(=S)Nc2c(Br)cccc2Br)cc1	–	0.17	70.9	417	–	–
CC(=O)Nc1ccc(NC(=S)NC(=O)c2ccc(N(C)C)cc2)cc1	inactive	–	–	–	–	–
CC(C)(C)c1ccc(C(=O)NC(=S)Nc2cccc(F)c2)cc1	–	0.091	50.5	555	–	–
Cc1ccc(NC(=S)NC(=O)c2ccc(C(C)(C)C)cc2)c(Br)c1	–	0.032	41.1	1280	3.2	6.2
CC(=O)Nc1ccc(NC(=S)NC(=O)c2ccc(C(C)C)cc2)cc1	–	11.2	46.9	4.2	–	–
CC(=O)Nc1ccc(NC(=S)NC(=O)c2cc3ccccc3s2)cc1	–	0.27	90.2	334	–	–
Cc1ncn(-c2ccc(NC(=S)NC(=O)c3ccc(C(C)(C)C)cc3)cc2)n1	–	16.9	52.7	3.1	–	–
CC(C)(C)c1ccc(C(=O)NC(=S)Nc2ccc(NC(=O)c3ccccc3)cc2)cc1	–	0.004	77.2	19300	0.7	0.6
COc1ccc(C(=O)Nc2ccc(NC(=S)NC(=O)c3ccc(C(C)(C)C)cc3)cc2)cc1	–	0.003	72.2	24100	0.3	0.4
CC(C)(C)c1ccc(C(=O)NC(=S)Nc2ccc(N)cc2)cc1	–	0.024	100	4170	1.9	4.9
CC(C)(C)c1ccc(C(=O)NC(=O)Nc2ccccc2F)cc1	–	0.15	97.9	> 667	–	–
CC(C)(C)c1ccc(C(=O)NC(=S)Nc2ccc(F)cc2)cc1	–	0.61	> 100	> 164	–	–
COc1cccc(C(=O)NC(=S)Nc2ccc(NC(C)=O)cc2)c1	inactive	–	–	–	–	–
CCCCCc1ccc(C(=O)Nc2ccc(NC(=S)NC(=O)c3ccc(C(C)(C)C)cc3)cc2)cc1	–	0.01	77.2	7720	–	–
CC(C)(C)C(=O)Nc1ccc(NC(=S)NC(=O)c2ccc(C(C)(C)C)cc2)cc1	–	0.015	81	5400	–	–
CC(=O)N[C@H]1[C@H]([C@H](O)[C@H](O)CO)OC(C(=O)O)=C[C@@H]1N=C(N)N [ZANAMIVIR]	–	–	> 100	> 1540	–	–
CC(C)(C)c1ccc(C(=O)NC(=S)Nc2cc(Br)cc(Br)c2)cc1	–	0.64	70.9	111	–	–
CC(=O)Nc1ccc(NC(=S)NC(=O)c2ccccc2)cc1	inactive	–	–	–	–	–
COc1ccccc1NC(=S)NC(=O)c1ccc(C(C)(C)C)cc1	–	0.11	> 100	> 909	–	–
